Measurements published in US9713618B2, “Method for modifying food intake and regulating food preference with a DPP-4 inhibitor” (Boehringer Ingelheim International GmbH, priority 2012, dated 2017).
Where no end group is shown, it is not given here.

What was measured:
[1] = Oral sucrose tolerance test (glucose control) on Day 4 in diabetic ZDF rats; assay type: in vivo, Male ZDF-Leprfa/Crl (diabetic fa/fa) rats; conditions: po daily 4 days, oral sucrose tolerance test Day 4
Description: (§1) Male ZDF-Leprfa/Crl (diabetic fa/fa) rats fed standard chow are allocated (n=10/group) based on body weight and fasting plasma glucose (FPG). […] An oral sucrose tolerance test (4 g/kg po) is performed on Day 4 and body weight is recorded daily.

[2] = Overall body weight in diabetic ZDF rats dosed daily for 4 days; assay type: in vivo, Male ZDF-Leprfa/Crl (diabetic fa/fa) rats; conditions: po daily 4 days
Description: as §1

[3] = Acute nocturnal food intake in normal-weight rats; assay type: in vivo, rat; conditions: linagliptin 0.5 mg/kg sc BID, GLP-1 0.4 mg/kg sc BID
Excerpt: (§2) This anti-obesity effect is caused by appetite suppression and change in diet preference, presumably associated with increased dynorphin activity in dopaminergic forebrain regions involved in reward anticipation and habit learning.

[4] = system: active GLP-1; assay: Plasma active GLP-1 5 min after sucrose load in diabetic ZDF rats; assay type: in vivo, Male ZDF-Leprfa/Crl (diabetic fa/fa) rats; conditions: 5 min after the sucrose load
Description: as §1

[5] = Diet-induced obese (DIO) rats: body weight, food intake, diet preference; assay type: in vivo, rat; conditions: 14 days of monotherapy
Excerpt: as §2

[6] = Pharmacokinetics of BI 1356 after multiple oral doses once daily for 12 days in patients with type 2 diabetes; conditions: for fe0-24 / feτ, ss: gMean; for feτ, ss: steady state (Day 12)
[7] = Safety and tolerability in people with type 2 diabetes
[8] = S1: linagliptin 1 mg/kg, high-dose voglibose 10 mg/kg
[9] = S2: linagliptin 1 mg/kg, low-dose voglibose 1 mg/kg
[10] = S1: linagliptin 1 mg/kg, voglibose 10 mg/kg
[11] = S2: linagliptin 1 mg/kg, voglibose 1 mg/kg

Row | Molecule | glucose control compared with vehicle [1, 8] | glucose control compared with vehicle [1, 9] | change in overall weight compared with vehicle [2, 10] | change in overall weight compared with vehicle [2, 11] | nocturnal food intake [3] | plasma active GLP-1 increase compared with vehicle ([4]; S1 (voglibose 10 mg/kg)) | plasma active GLP-1 increase compared with vehicle ([4]; S2 (voglibose 1 mg/kg)) | body weight [5] | mean accumulation ratio RA,AUC ([6]; doses above 1 mg) | fe0-24 ([6]; 2.5 mg oral once daily) | fe0-24 ([6]; 5 mg oral once daily) | fe0-24 ([6]; 10 mg oral once daily) | feτ, ss ([6]; 1 mg oral once daily) | feτ, ss ([6]; 2.5 mg oral once daily) | feτ, ss ([6]; 5 mg oral once daily) | feτ, ss ([6]; 10 mg oral once daily) | form and route of excretion ([6]; human, in vivo) | excreted via the kidney ([6]; therapeutic oral dose levels) | main route of excretion ([6]; therapeutic oral dose levels) | safety and tolerability [7]
1 | OCC(CO)N[C@H]1C[C@](O)(CO)[C@@H](O)[C@H](O)[C@H]1O [voglibose, reference compound] | −33% | −18% | −3.0% | −1.7% | – | – | – | – | – | – | – | – | – | – | – | – | – | – | – | –
2 | CC#CCn1c(N2CCC[C@@H](N)C2)nc2c1c(=O)n(Cc1nc(C)c3ccccc3n1)c(=O)n2C [BI 1356] | −10% | −17% | +0.7% | −0.2% | no effect | 160% | 144% | no effect | ≤ 1.4 | 0.139% | 0.453% | 0.919% | 3.34% | 3.06% | 6.27% | 3.22% | primarily excreted unchanged via the bile | < 7 % of the administered oral dose | mainly excreted via the liver | placebo-like safety and tolerability
3 | GLP-1: native GLP-1(7-36), short acting GLP-1 receptor agonist (HAEGTFTSDVSSYLEGQAAKEFIAWLVKGR; ends and bridges not checked; UniProt P01275 98-127, looked up, fragment) [reference compound] | – | – | – | – | modest and short-lived suppression | – | – | no effect | – | – | – | – | – | – | – | – | – | – | – | –
